Test results published in patent publication EP0102213A1, “Ethanolamine derivatives, pharmaceutical compositions containing them, and processes for preparing them” (BEECHAM GROUP PLC, priority 1982, dated 1984).
Structures can show the parent of a compound that is named as a salt.

Experiments:
right atrium = experiment: Cardiac activity: rate of the spontaneously beating isolated right atrium; set-up: species or system Sprague-Dawley male rats; settings: rat right atrium; for Emax: intrinsic activity: maximal effect relative to isoprenaline maximum (isoprenaline = 1), read-out: Rate i.a.; for EC50: Krebs solution 32°C, concentration producing 50% of the compound's own maximum response
Method: (§1) Sprague-Dawley male rats (300-400 g) are killed and the right and left atria dissected out independently and mounted on a combined tissue holder/ electrode. The tissues are then immersed in a glass bath containing Krebs solution maintained at 32°C. The rate of the spontaneously beating right atrium (via an isometric transducer and a ratemeter) and the tension of the electrically paced left atrium (via an isometric transducer) are recorded on an Ml9 chart recorder.
(§2) After an initial stabilization period, the tissues are exposed to a maximal concentration of isoprenaline (10-^7M). The tissues are then washed several times until rate and tension return to baseline level. A dose-response curve to the test compound is then carried out.
(§3) Responses to each concentration of test compound are expressed as a percentage of the maximal responses to isoprenaline. Results are given in the form of (a) intrinsic activity (i.a.) (maximal effect of test compound with respect to isoprenaline maximum, i.e. isoprenaline intrinsic activity = 1) and (b) EC50 (the molar concentration at which the test compound produces 50% of its own maximum response).

left atrium = experiment: Cardiac activity: tension of the electrically paced isolated left atrium; set-up: species or system Sprague-Dawley male rats; settings: rat left atrium; for Emax: intrinsic activity: maximal effect relative to isoprenaline maximum (isoprenaline = 1), read-out: Tension i.a.; for EC50: electrically paced, Krebs solution 32°C, concentration producing 50% of the compound's own maximum response
Method: as §1, §2, §3

Female CFLP mice = experiment: Hypoglycaemic activity: blood glucose after subcutaneous glucose load in fasted mice; format: in vivo; settings: 24 h fasted female CFLP mice, glucose 1 g/Kg s.c. 30 min after dosing, 2 hour AUC versus water controls
Method: Female CFLP mice, weighing approximately 25 g, were fasted for 24 hours prior to the study. The compounds under study were administered orally as an aqueous solution to each of 6 mice. 30 minutes later a blood sample (10 ul) was obtained from the tail for the analysis of blood glucose. Immediately after taking this blood sample, glucose (lg/Kg body weight) was administered subcutaneously to each mouse. 6 mice were given water as a control. Blood samples were then obtained from each mouse at 30 minute intervals for 120 minutes.
Compounds that produced a significant (P<0.05) reduction of blood glucose, compared with control mice given water, at any time interval, were considered active. The area under the blood glucose curve over the 2 hour period after the administration of the glucose was calculated for each compound and compared with the value for control animals.

genetically obese mice = experiment: Anti-obesity activity: carcass lipid after daily oral gavage for 28 days; format: in vivo; settings: carcass composition
Method: The compounds were administered by oral gavage in water or carboxymethyl-cellulose suspension to genetically obese mice daily for 28 days. At the end of the time the carcass composition was determined.

[1] = 13.4 mg/kg p.o. daily for 28 days

SMILES: CC(Cc1ccc(OCCN2CCN(c3ccccc3)CC2)cc1)NCC(O)c1ccccc1 (centres unmarked) [Example 5, N-[2-(4-(2-(1-(4-Phenyl)piperazinyl)ethoxy)phenyl)-1-methylethyl]-2-hydroxy-2-phenylethanamine trihydrochloride]
- Emax (right atrium): 42%
- EC50 (right atrium): 0.54 µM
- Emax (left atrium): 67%
- EC50 (left atrium): 12 µM

SMILES: Br.Br.Br.CC(Cc1ccc(OCCN2CCNCC2)cc1)NCC(O)c1cccc(C(F)(F)F)c1 (centres unmarked) [Example 3, N-[2-(4-(2-(1-Piperazinyl)ethoxy)phenyl)-1-methylethyl]-2-hydroxy-2-(3-trifluoromethylphenyl)ethanamine trihydrobromide]
- % Reduction in area under Blood Glucose Curve (Female CFLP mice; 2.5 μmol/Kg orally): 20%

SMILES: CC(Cc1ccc(OCCN2CCN(c3ccc(Cl)cc3)CC2)cc1)NCC(O)c1cccc(C(F)(F)F)c1 (centres unmarked) [Example 10, N-[2-(4-(2-(1-(4-(4-Chlorophenyl))piperazinyl)ethoxy)-phenyl)-1-methylethyl]-2-hydroxy-2-(3-trifluoromethylphenyl)ethanamine trihydrochloride]
- Emax (right atrium): 86%
- EC50 (right atrium): 20 µM
- Emax (left atrium): 100%
- EC50 (left atrium): 27 µM

SMILES: CC(Cc1ccc(OCCN2CCN(c3cccc(C(F)(F)F)c3)CC2)cc1)NCC(O)c1cccc(Cl)c1 (centres unmarked) [Example 13, N-[2-(4-(2-(1-(4-(3-Trifluoromethylphenyl))piperazinyl)-ethoxy)phenyl)-1-methylethyl]-2-hydroxy-2-(3-chlorophenyl) ethanamine trihydrochloride]
- g LIPID/MOUSE TREATED (genetically obese mice; [1]): 16.40 g
- Emax (right atrium): 7%
- EC50 (right atrium): 0.035 µM
- Emax (left atrium): 33%
- EC50 (left atrium): 45 µM

SMILES: CC(Cc1ccc(OCCN2CCN(c3cccc(Cl)c3)CC2)cc1)NCC(O)c1cccc(C(F)(F)F)c1 (centres unmarked) [Example 8, N-[2-(4-(2-(1-(4-(3-Chlorophenyl))piperazinyl)ethoxy)-phenyl)-1-methylethyl]-2-hydroxy-2-(3-trifluoromethylphenyl)ethanamine trihydrochloride]
- g LIPID/MOUSE TREATED (genetically obese mice; [1]): 18.06 g

SMILES: CC(Cc1ccc(OCCN2CCN(c3ccccc3)CC2)cc1)NCC(O)c1cccc(Cl)c1F (centres unmarked) [Example 7, N-[2-(4-(2-(1-(4-Phenyl)piperazinyl)ethoxy)phenyl)-1-methylethyl]-2-hydroxy-2-(2-fluoro-3-chlorophenyl)ethanamine trihydrochloride]
- Emax (right atrium): 35%
- EC50 (right atrium): 0.17 µM
- Emax (left atrium): 0%

SMILES: CC(Cc1ccc(OCCN2CCN(c3ccccc3)CC2)cc1)NCC(O)c1cccc(C(F)(F)F)c1 (centres unmarked) [Example 2, N-[2-(4-(2-(1-(4-Phenyl)piperazinyl)ethoxy)phenyl)-1-methylethyl]-2-hydroxy-2-(3-trifluoromethylphenyl)ethan-amine trihydrobromide]
- % Reduction in area under Blood Glucose Curve (Female CFLP mice; 2.5 μmol/Kg orally): 64%
- Emax (left atrium): 0%

SMILES: COC(CNC(C)Cc1ccc(OCCN2CCN(c3ccccc3)CC2)cc1)c1cccc(Cl)c1 (centres unmarked) [Example 15, N-[2-(4-(2-(1-(4-Phenyl)piperazinyl)ethoxy)phenyl)-1-methylethyl]-2-methoxy-2-(3-chlorophenyl)ethanamine trihydrochloride]
- % Reduction in area under Blood Glucose Curve (Female CFLP mice; 12.5 μmol/Kg orally): 47%

SMILES: CC(Cc1ccc(OCCN2CCN(Cc3ccccc3)CC2)cc1)NCC(O)c1cccc(C(F)(F)F)c1 (centres unmarked) [Example 1, N-[2-(4-(2-(1-(4-Benzyl)piperazinyl)ethoxy)henyl)-1-methylethyl]-2-hydroxy-2-(3-trifluoromethylphenyl)ethanamine trihydrochloride]
- % Reduction in area under Blood Glucose Curve (Female CFLP mice; 2.5 μmol/Kg orally): 38%
- Emax (right atrium): 0%
- Emax (left atrium): 0%

SMILES: CC(Cc1ccc(OCCN2CCN(c3ccccc3)CC2)cc1)NCC(O)c1ccccc1F (centres unmarked) [Example 6, N-[2-(4-(2-(1-(4-Phenyl)piperazinyl)ethox)phenyl)-1-methylethyl]-2-hydroxy-2-(2-fluorophenyl)ethanamine trihydrochloride]
- Emax (right atrium): 44%
- EC50 (right atrium): 0.35 µM
- Emax (left atrium): 28%
- EC50 (left atrium): 14 µM

SMILES: CC(Cc1ccc(OCCN2CCN(C)CC2)cc1)NCC(O)c1cccc(C(F)(F)F)c1 (centres unmarked) [Example 14, N-[2-(4-(2-(1-(4-Methyl)piperazinyl)ethoxy)henyl)-1-methylethyl]-2-hydroxy-2-(3-trifluoromethylphenyl) ethanamine trihydrochloride, monohydrate]
- g LIPID/MOUSE TREATED (genetically obese mice; 11.9 mg/kg p.o. daily for 28 days): 18.26 g
- Emax (right atrium): 4%
- EC50 (right atrium): 1.7 µM
- Emax (left atrium): 0%
